# Laboratory results published in the supplement of paper PMC4862054.
# Key:
# Settings in all cases: incubation time: 72 h
# MFM-223 [1] = assay: normalised viability (% of control), CellTiter-Blue; higher = more viable cells (about 100 = DMSO control)
# Experimental: (§1)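 DSRT, CellTiter-Blue viability, 72 h incubation. Signal is normalised to DMSO and benzethonium chloride controls. Value is the normalised response at dose 3.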
# Hs578T = assay: as above
# Experimental: as §1
# HDQ-P1 [2] = assay: as above
# Experimental: as §1
# HCC1143 [3] = assay: as above
# Experimental: as §1
# CAL-51 [4] = assay: as above
# Experimental: as §1
# MDA-MB-468 [5] = assay: as above
# Experimental: as §1
# BT-474 [6] = assay: as above
# Experimental: as §1
# CAL-120 [7] = assay: as above
# Experimental: as §1
# HCC1937 = assay: as above
# Experimental: as §1
# DU-4475 [8] = assay: as above
# Experimental: as §1
# CAL-85-1 [9] = assay: as above
# Experimental: as §1
# SK-BR-3 [10] = assay: as above
# Experimental: as §1
# MDA-MB-231 [11] = assay: as above
# Experimental: as §1
# BT-549 [12] = assay: as above
# Experimental: as §1
# HCC1599 = assay: as above
# Experimental: as §1
# MDA-MB-436 = assay: as above
# Experimental: as §1
# MDA-MB-453 [13] = assay: as above
# Experimental: as §1
# CAL-148 [14] = assay: as above
# Experimental: as §1
# MFM-223 [15] = assay: normalised viability (% of control), CellTiter-Blue; higher = more viable cells (100 = DMSO, 0 = benzethonium chloride kill control)
# How it was run: (§2)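 Vehicle (100) and a positive kill control (0) anchored the normalisation of each plate, and Z'-factor was used for quality control. Breast cancer cell lines in 20 µl suspension were incubated 72 h over compound in 5 µl medium in 384-well plates, followed by CellTiter-Blue at 560/590 nm. The value is normalised viability at a single listed concentration of the series.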
# HDQ-P1 [16] = assay: as above
# How it was run: as §2
# HCC1143 [17] = assay: as above
# How it was run: as §2
# CAL-51 [18] = assay: as above
# How it was run: as §2
# MDA-MB-468 [19] = assay: as above
# How it was run: as §2
# BT-474 [20] = assay: as above
# How it was run: as §2
# CAL-120 [21] = assay: as above
# How it was run: as §2
# DU-4475 [22] = assay: as above
# How it was run: as §2
# CAL-85-1 [23] = assay: as above
# How it was run: as §2
# SK-BR-3 [24] = assay: as above
# How it was run: as §2
# MDA-MB-231 [25] = assay: as above
# How it was run: as §2
# BT-549 [26] = assay: as above
# How it was run: as §2
# MDA-MB-453 [27] = assay: as above
# How it was run: as §2
# CAL-148 [28] = assay: as above
# How it was run: as §2
structure (smiles),measurement,setting,value
C=CC(=O)N1CCC[C@@H](n2nc(-c3ccc(Oc4ccccc4)cc3)c3c(N)ncnc32)C1,normalised viability,MFM-223 [1]; 10 nM,91.1%
same,normalised viability,Hs578T; 10 nM,99.8%
same,normalised viability,HDQ-P1 [2]; 1 nM,111%
same,normalised viability,HCC1143 [3]; 10 nM,79.6%
same,normalised viability,CAL-51 [4]; 1 nM,95%
same,normalised viability,MDA-MB-468 [5]; 10 nM,102%
same,normalised viability,BT-474 [6]; 10 nM,84.3%
same,normalised viability,CAL-120 [7]; 10 nM,83.5%
same,normalised viability,HCC1937; 10 nM,108%
same,normalised viability,DU-4475 [8]; 1 nM,92.8%
same,normalised viability,CAL-85-1 [9]; 1 nM,96.2%
same,normalised viability,SK-BR-3 [10]; 10 nM,57.9%
same,normalised viability,MDA-MB-231 [11]; 10 nM,90.3%
same,normalised viability,BT-549 [12]; 10 nM,97.9%
same,normalised viability,HCC1599; 10 nM,85.6%
same,normalised viability,MDA-MB-436; 10 nM,88.2%
same,normalised viability,MDA-MB-453 [13]; 1 nM,94.4%
same,normalised viability,CAL-148 [14]; 1 nM,99.5%
same,normalised viability,MFM-223 [15]; 0.1 nM,99.8%
same,normalised viability,HDQ-P1 [16]; 0.1 nM,105%
same,normalised viability,HCC1143 [17]; 0.1 nM,88.1%
same,normalised viability,CAL-51 [18]; 0.1 nM,93.1%
same,normalised viability,MDA-MB-468 [19]; 0.1 nM,103%
same,normalised viability,BT-474 [20]; 0.1 nM,107%
same,normalised viability,CAL-120 [21]; 0.1 nM,81.3%
same,normalised viability,DU-4475 [22]; 0.1 nM,94.8%
same,normalised viability,CAL-85-1 [23]; 0.1 nM,86.1%
same,normalised viability,SK-BR-3 [24]; 0.1 nM,90.7%
same,normalised viability,MDA-MB-231 [25]; 0.1 nM,101%
same,normalised viability,BT-549 [26]; 0.1 nM,118%
same,normalised viability,MDA-MB-453 [27]; 0.1 nM,103%
same,normalised viability,CAL-148 [28]; 0.1 nM,102%
CC(=O)Nc1cccc(-n2c(=O)n(C3CC3)c(=O)c3c(Nc4ccc(I)cc4F)n(C)c(=O)c(C)c32)c1,normalised viability,MFM-223 [1]; 2.5 nM,90.6%
same,normalised viability,Hs578T; 2.5 nM,94.9%
same,normalised viability,HDQ-P1 [2]; 0.25 nM,103%
same,normalised viability,HCC1143 [3]; 2.5 nM,86.7%
same,normalised viability,CAL-51 [4]; 0.25 nM,90.4%
same,normalised viability,MDA-MB-468 [5]; 2.5 nM,105%
same,normalised viability,BT-474 [6]; 2.5 nM,119%
same,normalised viability,CAL-120 [7]; 2.5 nM,99.4%
same,normalised viability,HCC1937; 2.5 nM,102%
same,normalised viability,DU-4475 [8]; 0.25 nM,101%
same,normalised viability,CAL-85-1 [9]; 0.25 nM,97.3%
same,normalised viability,SK-BR-3 [10]; 2.5 nM,92.7%
same,normalised viability,MDA-MB-231 [11]; 2.5 nM,57.7%
same,normalised viability,BT-549 [12]; 2.5 nM,104%
same,normalised viability,HCC1599; 2.5 nM,84.6%
same,normalised viability,MDA-MB-436; 2.5 nM,92.8%
same,normalised viability,MDA-MB-453 [13]; 0.25 nM,106%
same,normalised viability,CAL-148 [14]; 0.25 nM,107%
same,normalised viability,MFM-223 [15]; 0.025 nM,105%
same,normalised viability,HDQ-P1 [16]; 0.025 nM,105%
same,normalised viability,HCC1143 [17]; 0.025 nM,102%
same,normalised viability,CAL-51 [18]; 0.025 nM,98.7%
same,normalised viability,MDA-MB-468 [19]; 0.025 nM,112%
same,normalised viability,BT-474 [20]; 0.025 nM,100%
same,normalised viability,CAL-120 [21]; 0.025 nM,104%
same,normalised viability,DU-4475 [22]; 0.025 nM,105%
same,normalised viability,CAL-85-1 [23]; 0.025 nM,107%
same,normalised viability,SK-BR-3 [24]; 0.025 nM,135%
same,normalised viability,MDA-MB-231 [25]; 0.025 nM,105%
same,normalised viability,BT-549 [26]; 0.025 nM,104%
same,normalised viability,MDA-MB-453 [27]; 0.025 nM,107%
same,normalised viability,CAL-148 [28]; 0.025 nM,107%
CCc1cncnc1N1CCN(Cc2nc3ccc(C(F)(F)F)cc3[nH]2)CC1,normalised viability,MFM-223 [1]; 100 nM,103%
same,normalised viability,Hs578T; 100 nM,96.4%
same,normalised viability,HDQ-P1 [2]; 10 nM,116%
same,normalised viability,HCC1143 [3]; 100 nM,132%
same,normalised viability,CAL-51 [4]; 10 nM,87%
same,normalised viability,MDA-MB-468 [5]; 100 nM,117%
same,normalised viability,BT-474 [6]; 100 nM,123%
same,normalised viability,CAL-120 [7]; 100 nM,105%
same,normalised viability,HCC1937; 100 nM,104%
same,normalised viability,DU-4475 [8]; 10 nM,94.2%
same,normalised viability,CAL-85-1 [9]; 10 nM,96.3%
same,normalised viability,SK-BR-3 [10]; 100 nM,98.2%
same,normalised viability,MDA-MB-231 [11]; 100 nM,91.6%
same,normalised viability,BT-549 [12]; 100 nM,88.2%
same,normalised viability,HCC1599; 100 nM,86.2%
same,normalised viability,MDA-MB-436; 100 nM,99.8%
same,normalised viability,MDA-MB-453 [13]; 10 nM,98.8%
same,normalised viability,CAL-148 [14]; 10 nM,107%
same,normalised viability,MFM-223 [15]; 1 nM,103%
same,normalised viability,HDQ-P1 [16]; 1 nM,106%
same,normalised viability,HCC1143 [17]; 1 nM,103%
same,normalised viability,CAL-51 [18]; 1 nM,90.8%
same,normalised viability,MDA-MB-468 [19]; 1 nM,109%
same,normalised viability,BT-474 [20]; 1 nM,102%
same,normalised viability,CAL-120 [21]; 1 nM,111%
same,normalised viability,DU-4475 [22]; 1 nM,93.2%
same,normalised viability,CAL-85-1 [23]; 1 nM,99%
same,normalised viability,SK-BR-3 [24]; 1 nM,88.8%
same,normalised viability,MDA-MB-231 [25]; 1 nM,96.8%
same,normalised viability,BT-549 [26]; 1 nM,98.2%
same,normalised viability,MDA-MB-453 [27]; 1 nM,101%
same,normalised viability,CAL-148 [28]; 1 nM,114%
